Key:
[1] = biological target: T1, serotonin 5-HT1A receptor (Rattus norvegicus, UniProt P19327); conditions: standard for anxiolytic activity; cited from earlier work
T1 construct: following the procedure of Hall et al., J. Neurochem; 44, 1685 (1985); from tissue
T1 sequence (P19327 1-422): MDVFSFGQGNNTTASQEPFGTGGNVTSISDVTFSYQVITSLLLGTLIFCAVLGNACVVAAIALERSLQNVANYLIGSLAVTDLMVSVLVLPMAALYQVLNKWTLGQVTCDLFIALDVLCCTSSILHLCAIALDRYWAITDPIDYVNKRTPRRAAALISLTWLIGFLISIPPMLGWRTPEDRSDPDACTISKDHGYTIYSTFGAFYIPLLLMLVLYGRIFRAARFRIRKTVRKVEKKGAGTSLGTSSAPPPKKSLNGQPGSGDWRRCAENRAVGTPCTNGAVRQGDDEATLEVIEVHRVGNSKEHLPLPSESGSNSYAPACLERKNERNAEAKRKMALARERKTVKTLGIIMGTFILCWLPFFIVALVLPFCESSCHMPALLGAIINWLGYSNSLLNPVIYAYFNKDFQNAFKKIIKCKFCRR

[2] = biological target: T1, serotonin 5-HT1A receptor; assay: serotonin 5-HT1A receptor binding (displacement of [3H]8-OHDPAT)
Excerpt: High affinity for the serotonin 5-HT1A receptor was established by testing the claimed compound's ability to displace [^3 H]8-OHDPAT (dipropylaminotetralin) from the 5-HT1A serotonin receptor following the procedure of Hall et al., J. Neurochem. 44, 1685 (1985). […] The anxiolytic activity of buspirone is believed to be, at least partially, due to its 5-HT1A receptor affinity (Vander Maelen et al., Eur. J. Pharmacol., 129 (1-2) 123-130 (1986).

dopamine D-2 receptor = biological target: T2, dopamine D-2 receptor (Rattus norvegicus, UniProt P61169); assay: dopamine D-2 receptor binding (displacement of 3H-spiroperidol, homogenized limbic brain tissue)
T2 construct: from tissue; host or cells: limbic brain tissue, homogenized
Description: High affinity for the dopamine D-2 receptor was established by the standard experimental test procedure of Fields, et al., Brain Res., 136, 578-584 (1977) and Yamamura et al., eds., Neurotransmitter Receptor Binding, Raven Press, N.Y. (1978) wherein homogenized limbic brain tissue is incubated with ^3 H-spiroperiodol and various concentrations of test compound, filtered and washed and shaken with Hydrofluor scintillation cocktail (National Diagnostics) and counted in a Packard 460 CD scintillation counter.

[3] = conditioned avoidance, Discrete Trial (lever press); assay type: in vivo, rat (male CD); conditions: Rattus norvegicus, read-out: Avoidance Block AB50, Discrete Trial
Excerpt: (§1) The antipsychotic properties of the compound of Example 5 were further established by standard pharmacologically accepted procedures involving conditioned avoidance studies in which trained male CD rats (Charles River), 400-500 g. body weight are exposed to a fifteen second warning tone (conditioned stimulus) continued for an additional fifteen seconds accompanied by electric shock. The rat can avoid the electric shock by jumping to an exposed shelf (shelf-jump response). A response during the initial warning tone is considered an avoidance response, while a response during shock delivery is considered an escape response. The shelf-jump response test procedure follows that of Herman et. al., Comm. in Psychopharm., 3, pp. 165-171 (1979). A similar test procedure (Discrete Trial) in which a lever press was substituted for a shelf-jump was also used to establish the activity of the compound of Example 5. The compound was tested over a full dose range and the Avoidance Block activities reported as "AB50 's (mg/kg): Shelf-jump: 6.43 (no CI) i.p., 58.28 (no CI) p.o.; Discrete Trial: 4.80 (2.14-17.66) i.p., 35.35 (no CI) p.o.

[4] = conditioned avoidance, shelf-jump response test; assay type: in vivo, rat (male CD); conditions: Rattus norvegicus, no CI, read-out: Avoidance Block AB50, Shelf-jump
Excerpt: as §1

T2 sequence (P61169 whole entry): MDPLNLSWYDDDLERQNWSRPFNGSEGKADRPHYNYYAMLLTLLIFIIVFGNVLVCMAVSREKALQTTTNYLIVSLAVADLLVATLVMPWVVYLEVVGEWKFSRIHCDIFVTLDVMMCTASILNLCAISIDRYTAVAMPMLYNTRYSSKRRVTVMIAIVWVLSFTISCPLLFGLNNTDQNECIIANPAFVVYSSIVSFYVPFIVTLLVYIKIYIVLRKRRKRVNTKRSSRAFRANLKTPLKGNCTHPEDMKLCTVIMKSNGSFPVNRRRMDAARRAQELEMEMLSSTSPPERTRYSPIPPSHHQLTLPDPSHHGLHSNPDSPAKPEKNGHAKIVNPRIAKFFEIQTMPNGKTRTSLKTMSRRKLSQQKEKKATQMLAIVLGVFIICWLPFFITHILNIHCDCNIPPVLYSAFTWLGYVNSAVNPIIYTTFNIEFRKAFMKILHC

Compound | Ki [2] | inhibition at 1 µM [2] | inhibition at 1 µM (dopamine D-2 receptor) | further results
O=C1CC2(CCCC2)CC(=O)N1CCCCN1CCN(c2ncccn2)CC1 [buspirone] | – | – | – | affinity for the 5-HT1A serotonin receptor subtype (in words) [1]: high affinity
O=C1C2C3C=CC(C4CC34)C2C(=O)N1CCCCN1CCN(c2nsc3ccccc23)CC1 (stereo not shown) [Example 3, 2-[4-[4-(1,2-Benzisothiazol-3-yl)-1-piperazinyl]butyl]-4,4a,5,5a,6,6a-hexahydro-4,6-ethenocycloprop[f]isoindole-1,3(2H,3aH)-dione] | – | 100% | 99% | –
O=C1C2C3C=CC(C4C=CC43)C2C(=O)N1CCCCN1CCN(c2nsc3ccccc23)CC1 (stereo not shown) [Example 4, 2-[4-[4-(1,2-Benzisothiazol-3-yl)-1-piperazinyl]butyl]3a,4,4a,6a,7,7a-hexahydro-4,7-etheno-1H-cyclobut[f]isoindole-1,3(2H)-dione] | 0.65 nM | 97% | 95% | –

The next lines start with results.

Ki [2] | inhibition at 1 µM [2] | inhibition at 1 µM (dopamine D-2 receptor) | Compound | further results
0.065 nM | 96% | 95% | O=C1C2CC(C(=O)N1CCCCN1CCN(c3nsc4ccccc34)CC1)C1C2C2C3CC4C2C4C31 (stereo not shown) [Example 5, Decahydro-3-[4-[4-(1,2-benzisothiazol-3-yl)-1-piperazinyl]butyl]-1,5-methano-6,7,9-metheno-2H-pentaleno[1,2-d]azepine-2,4(3H)-dione] | Ki (dopamine D-2 receptor): 0.5 nM; ED50 ([3]; ip, CI in parentheses): 4.8 mg/kg; ED50 ([3]; po, no CI): 35.4 mg/kg; ED50 ([4]; ip): 6.43 mg/kg; ED50 ([4]; po): 58.3 mg/kg
0.4 nM | – | – | O=C1C2C(C(=O)N1CCCCN1CCN(c3nsc4ccccc34)CC1)C1C3CC4C(C32)C41 (stereo not drawn) [Example 7, (Endo)-octahydro-2-[4-[4-(1,2-benzisothiazol-3-yl)-1-piperazinyl]butyl]-4,5,7-metheno-1H-pentaleno[1,2-c]pyrrole-1,3(2H)-dione] | 5-HT1A Binding (Inhibition at 1 μM) ([2]; at 1 μM): 100%; D-2 Binding (Inhibition at 1 μM) (dopamine D-2 receptor; at 1 μM): 100%
– | 100% | 100% | O=C1C2C(C(=O)N1CCCCN1CCN(c3nsc4ccccc34)CC1)C1C3CC4C(C32)C41 (stereo not drawn) [Example 6, (Exo)-octahydro-2-[4-[4-(1,2-benzisothiazol-3-yl)-1-piperazinyl]butyl]-4,5,7-metheno-1H-pentaleno[1,2-c]pyrrole-1,3(1H)-dione] | –

— patent US4968792A, “Psychotropic benzisothiazole derivatives” (American Home Products Corporation, priority 1989, dated 1990)
